Target: T1, human Glycogen Synthase Kinase-3 beta (hGSK-3β) (Homo sapiens, UniProt P49841)
T1 construct: purchased Upstate cell signaling solutions
Assay: Biochemical hGSK-3beta assay (33P-ATP phosphorylation of biotinylated peptide substrate)
Settings: 10 μM ATP, 30 minutes at room temperature; read-out: GSK-3β IC50
Method: Methods—Biochemical hGSK-3beta Assay
Compounds were tested for their ability to inhibit human Glycogen Synthase Kinase-3 beta (hGSK-3β) to phosphorylate biotin-[…](pS)EDEEE. Compounds were incubated with 0.5 μCi 33P-ATP, 10 μM ATP, 0.0125U hGSK-3β (Upstate cell signaling solutions) and 1 μM substrate (biotin-[…](pS)EDEEE) in 50 mM HEPES, 10 mM MgCl2, […], 1 mM DTT, 0.0075% Triton, 2% DMSO (total volume 50 μL) for 30 minutes at room temperature. The incubation was stopped by addition of an equal volume of 100 mM EDTA, 4M NaCl. 80 μL of this mixture was added to streptavidin-coated Flashplates (PerkinElmer). Following a wash step, 33P incorporation was quantified on a MicroBeta microplate liquid scintillation counter (PerkinElmer). IC50's were determined by fitting a sigmoidal dose-response curve to the counts obtained at the different concentrations in GraphPad Prism.

T1 sequence (P49841 whole entry): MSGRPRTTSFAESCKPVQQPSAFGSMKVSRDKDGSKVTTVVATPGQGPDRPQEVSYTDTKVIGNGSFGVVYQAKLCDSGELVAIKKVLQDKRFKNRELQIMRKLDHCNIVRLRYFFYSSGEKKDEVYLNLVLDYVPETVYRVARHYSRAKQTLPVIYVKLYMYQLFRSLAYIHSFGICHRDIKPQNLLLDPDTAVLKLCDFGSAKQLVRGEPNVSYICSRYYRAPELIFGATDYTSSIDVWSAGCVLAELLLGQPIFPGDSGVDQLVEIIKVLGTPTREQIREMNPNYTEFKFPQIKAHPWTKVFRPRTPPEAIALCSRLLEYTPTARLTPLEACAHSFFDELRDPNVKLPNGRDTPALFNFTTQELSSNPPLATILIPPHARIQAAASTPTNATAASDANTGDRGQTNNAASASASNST

Row | SMILES | IC50
1 | N#Cc1ccc2[nH]c(O)c(-c3ccc(CN4CC5COCC5C4)cn3)c2c1 (stereo not drawn) [Example 1, 3-(5-((Dihydro-1H-furo[3,4-c]pyrrol-5(3H,6H,6aH)-yl)methyl)pyridin-2-yl)-2-hydroxy-1H-indole-5-carbonitrile] | < 0.1 µM
2 | Oc1[nH]c2ncccc2c1-c1ccc(CN2CCOCC2)cn1 [Example 2, 3-(5-(Morpholinomethyl)-pyridin-2-yl)-1H-pyrrolo[2,3-b]pyridin-2-ol] | 10 to 100 µM
3 | Oc1[nH]c2cnccc2c1-c1ccc(CN2CCOCC2)cn1 [Example 3, 3-(5-(Morpholinomethyl)-pyridin-2-yl)-1H-pyrrolo[2,3-c]pyridin-2-ol] | 0.1 to 10 µM
4 | [O-][n+]1cc(CN2CCOCC2)ccc1-c1c(O)[nH]c2ccc(Br)nc12 [Example 4.1, 2-(5-Bromo-2-hydroxy-1H-pyrrolo[3,2-b]pyridin-3-yl)-5-(morpholinomethyl)-pyridine 1-oxide] | 0.1 to 10 µM
5 | N#Cc1ccc2[nH]c(O)c(-c3ccc(CN4CC[C@H]5CNC[C@H]54)cn3)c2c1 (stereo in doubt) [Example 5, 3-(5-(((3aS,6aS)-Hexahydropyrrolo[3,4-b]pyrrol-1(2H)-yl)methyl)-pyridin-2-yl)-2-hydroxy-1H-indole-5-carbonitrile] | < 0.1 µM
6 | Oc1[nH]c2ccc(Br)nc2c1-c1ccc(CN2CCOCC2)cn1 [Example 4, 5-Bromo-3-(5-(morpholinomethyl)-pyridin-2-yl)-1H-pyrrolo[3,2-b]pyridin-2-ol] | < 0.1 µM
